Laboratory results published in patent US6552066B1, “Protein tyrosine kinase inhibitors for treating osteoarthritis” (priority 1995, dated 2003).

Key:
[1] = test system: IL-1 induced release of 35S-labelled proteoglycans from chondrocytes; assay: Chondrocyte cell culture matrix breakdown assay (IL-1 induced 35S release); type: cell-based, calf (bovine); conditions: for inhibitory effect on IL-1 induced release of 35S-labelled proteoglycans: first experiment; for percent inhibition of IL-1 induced 35S release: repeated assay
Description: A cell culture assay was used to measure the ability of the test compounds to slow the degradation of the extracellular matrix by a metalloproteinase. This assay measured the amount ^35S released from chondrocytes grown in a media with ^35S labeled sodium sulfate. The cell culture assay was carried out as follows:
Two or three 1 to 3 week old calf joints were obtained from an abattoir. The proximal end of the shank was about 4-5′ long to facilitate immobilization in the holder. The joint was kept cool and transported on ice. The exterior of the intact joints was washed well with a suitable anti-microbial soap, rinsed clean with warm water, rinsed in betadine and then finally rinsed with 70% ethanol. Up to this point all steps were done in a manner to ensure that the joint was kept as clean as possible. All subsequent steps were performed in a sterile field (i.e., in a Edgeguard laminar flow tissue culture hood). The joint was immobilized and the synovial fluid was aspirated with a needle and syringe. The joint was then cut open to expose the articular cartilage using a #21 scalpel. Using locking hemostats, forceps and a #15 scalpel, the cartilage was excised in full thickness pieces. Care was taken not to cut too deep into the subchondral bone to prevent bleeding. The cartilage pieces were placed into a 50 mL centrifuge tube containing 25 mL of Delbecco's phosphate buffered saline (D-PBS) supplemented with 1% antibiotic solution (penicillin, streptomycin and fungizone; GIBCO/BRL). The slices from each joint were then placed into separate 50 mL centrifuge tubes. The D-PBS was decanted and replaced with 25 mL of fresh D-PBS supplemented with antibiotics and subsequently agitated gently.
The cartilage pieces were transferred to a fresh 50 mL centrifuge tube and rinsed once more with 25 mL of D-PBS minus antibiotics. An enzymatic digestion solution containing 1 mg/mL of hyaluronidase in serum-free 1:1 DMEM/Ham's F-12 (DMEM/F12) was prepared. This solution was filter sterilized with 0.22 mm Milex-GV filter and kept on ice until ready to use. The cartilage pieces were digested with approximately 5 mL of hyaluronidase solution per joint for 2×15 minutes at 37° C. in the 50 mL centrifuge tube with gentle agitation at the 15 minute mark. This procedure removed residual hyaluronic acid from the surface of the chips. The enzymatic digestion solution was then aspirated and the cartilage pieces were rinsed with 25 mL of D-PBS.
A second enzymatic digestion solution containing 2.5 mg trypsin and 2 mg collagenase P per mL serum-free DMEM/F12 was prepared. This solution was also filter sterilized with a 0.22 mm Millex-GV filter and kept on ice until ready to use. The cartilage pieces were digested with approximately 5 mL of trypsin: collagenase solution per joint for 2×15 minutes at 37° C. in the 50 mL centrifuge tube with gentle agitation at the 15 minute mark. This procedure removed the synovial fibroblasts and any adherent connective tissue from the surface of the chips. The enzymatic digestion solution was then carefully removed and saved and the cartilage pieces were rinsed with 25 mL of D-PBS.
A third enzymatic solution containing 2 mgs of collagenase P (BMB) per mL serum-free DMEM/F12 was prepared. This solution was filter sterilized with a 0.22 mm Millex-GV filter and kept on ice until ready to use. The pre-digested cartilage pieces were finally digested with approximately 20 mL of enzymatic digestion solution per joint for 5-6 hours at 37° C. in a Bellco stirring digestion flask, at which point the cartilage was fully digested away.
The enzymes in the synovial fibroblast and chondrocyte digest were neutralized by addition of an equal volume of DMEM/F12 supplemented with 5% fetal bovine serum. Fibroblasts were plated in DMEM at a cellular density of 6.6×10^3 cells per cm^2. […]

[2] = test system: IL-1-induced aggrecan degradation; assay: Aggrecan degradation in IL-1-stimulated chondrocytes, 2-B-6 antibody immunoblot; type: cell-based, bovine
Description: (§1) Primary bovine articular chondrocytes from calf adio-carpal joints were isolated and cultured as above in Example 1, up to and including the addition of the following protein kinase inhibitors: 1) Protein kinase A (PKA) inhibitors; 0.5 μM H88 (Seikagaku Corp.), 0.5 μM H89 (Seikagaku Corp.); 2) Protein kinase C (PKC) inhibitors; 0.5 μM Calphostin C (Calbiochem), 1.0 μM Chelerythrine (Calbiochem); 3) CA^2+/Calmodulin Kinase II inhibitor; 5.0 μM KN93 (Seikagaku Corp.); 4) Protein tyrosine kinase (PTK) inhibitors; 50 μM Genistein (Calbiochem), 10 μM Herbimycin A (Calbiochem). After the 24 hour IL-1α incubation, the media of each sample was measured, and collected on ice in the presence of the protease inhibitors EGTA (5 mM), Pefaloc (1 mM), pepstatin (1 μg/ml), and NEM (5 mM). Media were concentrated approximately 40 fold using a Centriprep-10 ultrafiltration device (Amicon).
(§2) Proteoglycans contained within the media were deglycosylated by incubations with chondroitinase ABC, keratinase, and keratinase II following the procedure of Sandy et al. J Biol Chem (1991) 266:8683-8685 and Sandy et al. J. Clin Invest (1992) 89:1512-1516. Samples of deglycosylated media were subjected to 4-15% gradient SDS-PAGE and transferred to nitrocellulose membranes (2 ml-worth and 6 ml-worth of media were used for 2-B-6 and BC-3 immunoblotting, respectively.) The membranes were blocked with 1% nonfat dry milk and 1% BSA, and then incubated in either the BC-3 or 2-B-6 primary monoclonal antibody for 1 hour. The 2-B-6 antibody detects chondroitin sulfate stubs on chondroitinase-treated proteoglycans (both intact and degradation products. BC-3 antibody detects “ARGSV . . . ,” the new N-terminus (“neoepitope”) resulting from cleavage of aggrecan interglobular domain at Glu^373/ALA^374 by aggrecanase. It is of note to mention that the BC-3 and 2-B-6 antibodies were of low sensitivity. Following 3 washes, membranes were incubated in either alkaline phosphatase-conjugated goat anti-mouse (for the 2-B-6 blot) or biotinylated goat anti-mouse (for the BC-3 blot); followed by alkaline phosphatase-conjugated streptavidin/biotin complex). After washing 3 times, immunoreactive proteins were detected using NBT/BCIP (Sigma) colorimetric substrate.
The 2-B-6 antibody detected intact aggrecan (the uppermost band) and several aggrecan degradation products, along with decorin and biglycan (50K doublet), in the IL-1-treated media samples. […] The bands in the IL-1 sample that are seen at 230K, 200K, 130K and 100K have been previously identified by sequence analysis to result from IL-1-induced “aggrecanase” cleavage.
(§3) A repeat of the Western immunoblotting experiment using 2-B-6 antibodies was performed. Furthermore, additional inhibitors from four enzyme families were examined: 1) Protein tyrosine kinase (PTK) inhibitors; 1 μM Tryphostin AG 1296 (Calbiochem), 50 μM Tyrphostin A25 (AG 82) (Calbiochem), 50 μM Tyrphostin AG 126 (Calbiochem), 50 μM Tyrphostin B56 (AG 556) (Calbiochem), 20 μM DAPH (Calbiochem); 2) Guanylate cyclase inhibitor; 10 μM LY-83583 (Calbiochem); 3) Casein kinase I inhibitor; 20 μM CKI-7 (Seikagaku Corp.); and 4) Protein kinase G (PKG) and PKA inhibitor; 5.0 μM H89.

[3] = test system: prostromelysin protein; assay: Western immunoblot of IL-1-induced prostromelysin protein in primary bovine chondrocytes; type: cell-based; conditions: for effect on IL-1-induced prostromelysin levels: first experiment; for effect on IL-1α-induced prostromelysin protein levels: repeat experiment
Description: Isolation and culturing of primary bovine articular chondrocytes, as well as addition of inhibitors were performed as indicated above in Example 4. The following protein kinase inhibitors were tested: 1) Protein kinase A (PKA) inhibitors; 0.5 μM H88 (Seikagaku Corp.), 0.5 μM H89 (Seikagaku Corp.), 2) Protein kinase C (PKC) inhibitors; 0.5 μM Calphostin C (Calbiochem), 1.0 μM Chelerythrine (Calbiochem); 3) CA^2+/Calmodulin Kinase II inhibitor; 5.0 μM KN93 (Seikagaku Corp.); 4) Protein tyrosine kinase (PTK) inhibitors; 50 μM Genistein (Calbiochem), 10 μM Herbimycin A (Calbiochem).
After the 24 hour IL-1α incubation, the media of each sample was measured and collected on ice in the presence of the protease inhibitors EGTA (5 mM), Pefabloc (1 mM), pepstatin (1 μg/ml), and NEM (5 mM). Media were concentrated approximately 40 fold using a Centriprep-10 ultrafiltration device (Amicon). Concentrated samples were normalized to equivalent starting concentrations (cell number/culture volume), were reduced in the presence of SDS Laemmli sample buffer and electrophoresed in a precast 12% polyacrylamide gel (BioRad). Protein samples were then electroblotted to nitrocellulose and immunodetected using a primary antibody that recognizes both prostromelysin and stromelysin. Immunoreactive bands were visualized with the ABC detection (Pierce) and an NBT/BCIP color reagent (Sigma).
as §3, with “antistromelysin” for “2-B-6”, “inhibitors:” for “inhibitors;”, “Tyrphostin” for “Tryphostin”, “126” for “126 (Calbiochem), 50 μM Tyrphostin B56 (AG 556) (Calbiochem), 20 μM DAPH”

[4] = test system: aggrecanase cleavage of aggrecan (230K fragment); assay: Aggrecanase neoepitope in IL-1-stimulated chondrocytes, BC-3 antibody immunoblot; type: cell-based, bovine
Description: as §1, §2

[5] = test system: primary bovine articular chondrocytes; assay: In vitro MTT cytotoxicity assay; type: cell-based; conditions: 1 μM; 20 hours incubation + 4 hours MTT
From the text: The evaluation of cytotoxicity of compounds by in vitro methods allows one to establish criteria which allow rank ordering among compounds. These methods assess cell permeability, release of cytosolic enzymes, and oxidative potential of cells. The use of tetrazolium dyes to assess cytotoxicity has been established in the area of oncology, where such assays were developed to assess the cytotoxic potential of various chemotherapeutic agents. We have adapted the use of the MTT (3-(4,5-dimethylthiazol-2-yl)-2,5-diphenyl tetrazolium bromide) in an assay using primary bovine articular chondrocytes. The procedure for this assay is given below.
Chondrocytes are isolated from bovine calf radio-carpal joints as described in Example 1. Cells are plated in two 96-well plates at 4×10^4 cells per well, in DMEM/F12 media supplemented with 10% fetal bovine serum. The cultures are refed on days 4, 7, 11, 14, 18, 21 and 24. On day 27, the cells are rinsed with PBS, and incubated for 20 hours with 0.2 ml/well of serum-free DMEM/F12 plus 0.1% DMSO, and the test compounds. Genistein (50 μM), Herbimycin (10 μM) and Staurosporine (1 μM) were each used as test compounds. […] The 96-well plate is then read in a microplate reader at 560 nm, with subtraction of absorbance at 750 nm to account for cell debris.

[6] = test system: bovine cartilage explant; conditions: cited from earlier work
[7] = biological target: protein kinase C gamma (Homo sapiens, UniProt P05129); conditions: at 100 μM; cited from earlier work
[8] = biological target: protein kinase C alpha (Homo sapiens, UniProt P17252); conditions: at 100 μM; cited from earlier work
[9] = biological target: protein kinase C beta (Homo sapiens, UniProt P05771); conditions: at 100 μm; cited from earlier work
[10] = test system: Ca^2+-calmodulin dependent protein kinase II; conditions: cited from earlier work

Chain of protein kinase C beta (P05771 whole entry): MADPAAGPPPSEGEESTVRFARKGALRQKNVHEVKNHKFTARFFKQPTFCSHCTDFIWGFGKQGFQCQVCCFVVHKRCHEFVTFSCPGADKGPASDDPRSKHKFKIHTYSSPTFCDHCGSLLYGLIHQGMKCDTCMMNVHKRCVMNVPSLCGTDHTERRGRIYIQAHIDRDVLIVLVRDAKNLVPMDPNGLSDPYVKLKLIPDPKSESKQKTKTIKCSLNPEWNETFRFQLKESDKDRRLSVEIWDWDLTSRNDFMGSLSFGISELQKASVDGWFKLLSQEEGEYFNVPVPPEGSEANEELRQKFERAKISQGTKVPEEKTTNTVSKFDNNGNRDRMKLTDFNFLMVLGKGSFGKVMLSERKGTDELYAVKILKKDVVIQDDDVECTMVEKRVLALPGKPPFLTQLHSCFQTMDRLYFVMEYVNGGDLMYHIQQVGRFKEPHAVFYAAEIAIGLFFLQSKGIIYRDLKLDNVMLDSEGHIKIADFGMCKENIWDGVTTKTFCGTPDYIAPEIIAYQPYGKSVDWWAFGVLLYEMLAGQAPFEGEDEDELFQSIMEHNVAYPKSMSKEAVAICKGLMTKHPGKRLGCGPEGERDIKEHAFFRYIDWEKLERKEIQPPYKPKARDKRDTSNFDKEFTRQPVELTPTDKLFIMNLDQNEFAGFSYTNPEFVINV

Compound: COc1ccc2c(c[n+](C)c3c4cc5c(cc4ccc23)OCO5)c1OC [Chelerythrine]
- inhibitory effect on IL-1 induced release of 35S-labelled proteoglycans ([1]; 1 μM): no effect
- band pattern (ratio of intact aggrecan to 230K fragment), 2-B-6 ([2]; 1.0 μM): pattern similar to IL-1 alone

Compound: O=S(=O)(NCCNC/C=C/c1ccc(Br)cc1)c1cccc2cnccc12 [H89]
- inhibitory effect on IL-1 induced release of 35S-labelled proteoglycans ([1]; 0.5 μM): no effect
- percent inhibition of IL-1 induced 35S release ([1]; 0.5 μM): Little or no inhibition
- effect on IL-1-induced prostromelysin levels ([3]; 0.5 μM): no effect
- band pattern (ratio of intact aggrecan to 230K fragment), 2-B-6 ([2]; 0.5 μM): pattern similar to IL-1 alone
- BC-3 immunoreactive band at approximately 230K (aggrecanase-mediated fragment) ([4]; 0.5 μM): detected

Compound: COc1ccc(S(=O)(=O)N(CCO)c2ccccc2CN(C)C/C=C/c2ccc(Cl)cc2)cc1 [KN-93]
- inhibitory effect on IL-1 induced release of 35S-labelled proteoglycans ([1]; 5 μM): no effect
- effect on IL-1-induced prostromelysin levels ([3]; 5.0 μM): no effect
- band pattern (ratio of intact aggrecan to 230K fragment), 2-B-6 ([2]; 5.0 μM): pattern similar to IL-1 alone
- BC-3 immunoreactive band at approximately 230K (aggrecanase-mediated fragment) ([4]; 5.0 μM): absence

Compound: O=C1C(Nc2ccccc2)=CC(=O)c2ncccc21 [LY-83583]
- effect on IL-1α-induced prostromelysin protein levels ([3]; 10 μM): no effect

Compound: CN[C@@H]1C[C@H]2O[C@@](C)([C@@H]1OC)n1c3ccccc3c3c4c(c5c6ccccc6n2c5c31)C(=O)NC4 [Staurosporine]
- cytotoxicity, reduction of MTT dye [5]: reduction of MTT consistent with cytotoxicity

Compound: COc1cc2ncc(-c3ccccc3)nc2cc1OC [Tyrphostin AG 1296]
- percent inhibition of IL-1 induced 35S release ([1]; 1 μM): no inhibition
- effect on IL-1α-induced prostromelysin protein levels ([3]; 1 μM): no effect
- inhibition of IL-1-induced aggrecan degradation, 2-B-6 ([2]; 1 μM, repeat experiment): no inhibitory effect

Compound: NC1=NC(=O)/C(=C2\CCNC(=O)c3[nH]c(Br)cc32)N1 [Z-hymenialdisine]
- inhibition of cartilage degradation in the bovine cartilage explant assay [6]: inhibit cartilage degradation

Compound: NC1=N/C(=C2/CCNC(=O)c3[nH]ccc32)C(=O)N1 [debromohymenialdisine]
- inhibition of protein kinase C gamma [7]: 108%
- inhibition of protein kinase C alpha [8]: 97%
- inhibition of protein kinase C beta [9]: 95%
- inhibition of Ca2+-calmodulin dependent protein kinase II [10]: 94%

Compound: CKI-7
- percent inhibition of IL-1 induced 35S release ([1]; 20 μM): no inhibition
- effect on IL-1α-induced prostromelysin protein levels ([3]; 20 μM): no effect

Compound: Calphostin C
- inhibitory effect on IL-1 induced release of 35S-labelled proteoglycans ([1]; 0.5 μM): no effect
- effect on IL-1-induced prostromelysin levels ([3]; 0.5 μM): no effect
- band pattern (ratio of intact aggrecan to 230K fragment), 2-B-6 ([2]; 0.5 μM): pattern similar to IL-1 alone
- BC-3 immunoreactive band at approximately 230K (aggrecanase-mediated fragment) ([4]; 0.5 μM): detected
